In the supplement of paper PMC10307832:

Assays:
Assay in all cases: relative viability (nuclei count vs DMSO), 5 days (fraction); higher = more cells survive
[1] = compound: C/C(=N\NC(=S)N1CCC1)/C2=CC=CC=N2
Procedure, shortened: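 On vehicle-anchored 1536-well plates, lung cancer cell lines held overnight at 37 °C were pinned with five library-drug doses (not always all listed) spaced by √10. With no medium change over 5 days, they were then fixed, permeabilised and Hoechst-stained in one step and imaged at 4×. MetaXpress counted nuclei, and viability is the median across plates of treated-well over vehicle-well nuclei. Acceptance needed control CV below 25% and at least one doubling.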

[2] = compound: C/C(=N\NC(=S)N1CCC1)/C2=CC=CC=N2 + N=C(N)NC(=N)NCCc1ccccc1 [Phenformin] (partner 250 µM)
Procedure, shortened: (§1)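 After 5 days of treatment, lung cancer cells in 1536-well plates were fixed and stained in a single step (final 0.05% Triton X-100, 1% formaldehyde, 1 ug/ml Hoechst) and their nuclei counted on 4× images. Treatment had been applied by pin tool the day after seeding as one drug alone or as a fixed anchor-drug dose with five library-drug doses (not always all listed) in √10 steps. Relative viability is the nuclei count of treated wells divided by that of vehicle wells, and values are medians of duplicate plates.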

[3] = compound: C/C(=N\NC(=S)N1CCC1)/C2=CC=CC=N2 + COc1cccc2cc(-c3nc([C@H]4CC[C@H](C(=O)O)CC4)n4ncnc(N)c34)[nH]c12 [OSI-027] (partner 0.5 µM)
Procedure, shortened: as §1

[4] = compound: C/C(=N\NC(=S)N1CCC1)/C2=CC=CC=N2 + CC(=O)Nc1cccc(-n2c(=O)n(C3CC3)c(=O)c3c(Nc4ccc(I)cc4F)n(C)c(=O)c(C)c32)c1 [Trametinib] (partner 0.02 µM)
Procedure, shortened: as §1

Cell Line | relative viability ([1]; 0.05 µM) | relative viability ([1]; 0.1581 µM) | relative viability ([1]; 0.5 µM) | relative viability ([1]; 1.581 µM) | relative viability ([1]; 5 µM) | relative viability ([2]; first compound 0.05 µM) | relative viability ([2]; first compound 0.1581 µM) | relative viability ([2]; first compound 0.5 µM) | relative viability ([2]; first compound 1.581 µM) | relative viability ([2]; first compound 5 µM) | relative viability ([3]; first compound 0.05 µM) | relative viability ([3]; first compound 0.1581 µM) | relative viability ([3]; first compound 0.5 µM) | relative viability ([3]; first compound 1.581 µM) | relative viability ([3]; first compound 5 µM) | relative viability ([4]; first compound 0.05 µM) | relative viability ([4]; first compound 0.1581 µM) | relative viability ([4]; first compound 0.5 µM) | relative viability ([4]; first compound 1.581 µM) | relative viability ([4]; first compound 5 µM)
HCC-78 | 0.459 | 0.472 | 0.355 | 0.232 | 0.234 | 0.279 | 0.367 | 0.314 | 0.247 | 0.213 | 0.299 | 0.354 | 0.332 | 0.237 | 0.23 | 0.5 | 0.377 | 0.359 | 0.275 | 0.23
HCC-366 | 0.0382 | 0.0453 | 0.0381 | 0.0627 | 0.0401 | 0.0354 | 0.0736 | 0.0328 | 0.0375 | 0.0286 | 0.0452 | 0.0275 | 0.0339 | 0.0481 | 0.0279 | 0.0818 | 0.0309 | 0.0211 | 0.0256 | 0.025
HCC-827 | 0.44 | 0.359 | 0.316 | 0.275 | 0.205 | 0.222 | 0.239 | 0.201 | 0.173 | 0.175 | 0.288 | 0.281 | 0.156 | 0.176 | 0.168 | 0.377 | 0.269 | 0.211 | 0.214 | 0.176
HOP-62 | 0.111 | 0.0963 | 0.114 | 0.11 | 0.114 | 0.0721 | 0.0624 | 0.0719 | 0.0958 | 0.0779 | 0.104 | 0.0907 | 0.101 | 0.111 | 0.102 | 0.216 | 0.212 | 0.112 | 0.131 | 0.112
IA-LM | 0.0692 | 0.0771 | 0.0669 | 0.0644 | 0.0517 | – | – | – | – | – | – | – | – | – | – | – | – | – | – | –
LC-2-ad | 0.209 | 0.242 | 0.217 | 0.163 | 0.231 | 0.29 | 0.277 | 0.259 | 0.19 | 0.226 | 0.282 | 0.295 | 0.277 | 0.179 | 0.227 | 0.238 | 0.222 | 0.223 | 0.232 | 0.231
LCLC-97TM1 | 0.0886 | 0.109 | 0.0593 | 0.0801 | 0.0822 | 0.128 | 0.189 | 0.109 | 0.166 | 0.139 | 0.111 | 0.175 | 0.185 | 0.138 | 0.158 | 0.0885 | 0.152 | 0.0765 | 0.0664 | 0.0773
LCLC-103H | 0.336 | 0.331 | 0.347 | 0.335 | 0.357 | 0.17 | 0.172 | 0.21 | 0.129 | 0.187 | 0.178 | 0.22 | 0.217 | 0.2 | 0.19 | 0.303 | 0.622 | 0.324 | 0.357 | 0.256
LK-2 | 0.172 | 0.182 | 0.18 | 0.14 | 0.176 | 0.119 | 0.185 | 0.13 | 0.085 | 0.151 | 0.141 | 0.174 | 0.177 | 0.167 | 0.142 | 0.174 | 0.187 | 0.184 | 0.146 | 0.159
